Data as given in ChEMBL document CHEMBL1201862, “PubChem BioAssay data set” (2004).
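Compound exposure: 48 hours, 5 concentrations, 96-well plates. GI50 marks 50% less growth.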 The source made the active and inactive calls. Rule as the data show it: active = GI50 up to about 1.1 µM and inactive = higher.

How the values were obtained:
Experiment in all cases: NCI tumour cell line growth inhibition, 48 h
[1] = tested on: LXFL 529
[2] = tested on: SR
[3] = tested on: SF-539
[4] = tested on: DMS-273
[5] = tested on: MOLT-4
[6] = tested on: COLO 205
[7] = tested on: OVCAR-4
[8] = tested on: HCT-15
[9] = tested on: SNB-75
[10] = tested on: M19-MEL
[11] = tested on: OVCAR-3
[12] = tested on: DMS-114
[13] = tested on: NCI-H522
[14] = tested on: M14
[15] = tested on: UO-31
[16] = tested on: NCI/ADR-RES
[17] = tested on: SNB-78
[18] = tested on: HOP-18
[19] = tested on: A498
[20] = tested on: MDA-MB-435

SMILES	GI50 [1]	GI50 [2]	GI50 [3]	GI50 [4]	GI50 [5]	GI50 [6]	GI50 [7]	GI50 [8] [µM]	GI50 [9]	GI50 [10]	GI50 [11]	GI50 [12]	GI50 [13]	GI50 [14]	GI50 [15]	GI50 [16]	GI50 [17]	GI50 [18]	GI50 [19]	GI50 [20]
COc1ccc(C(=O)OCC2OC(n3cnc4c(=S)nc[nH]c43)C(OC(=O)c3ccc(OC)cc3)C2OC(=O)c2ccc(OC)cc2)cc1 (stereo not given)	> 100 µM (inactive)	14 µM (inactive)	20.5 µM (inactive)	15 µM (inactive)	22.5 µM (inactive)	> 100 µM (inactive)	7.82 µM (inactive)	47.2	7.52 µM (inactive)	> 100 µM (inactive)	5.06 µM (inactive)	5.65 µM (inactive)	7 µM (inactive)	3.36 µM (inactive)	55.1 µM (inactive)					
CSCC[C@@H]1C(=O)N(C)[C@H](C(C)(C)C)N1C(=O)c1ccccc1			> 100 µM (inactive)	> 100 µM (inactive)	> 100 µM (inactive)	> 100 µM (inactive)	> 100 µM (inactive)	> 100	> 100 µM (inactive)	> 100 µM (inactive)	> 100 µM (inactive)	> 100 µM (inactive)	> 100 µM (inactive)		> 100 µM (inactive)	> 100 µM (inactive)	> 100 µM (inactive)	> 100 µM (inactive)	> 100 µM (inactive)	
COc1ccc(-c2ccc(CC(=O)O)cc2)cc1OC	> 100 µM (inactive)	> 100 µM (inactive)			> 100 µM (inactive)	> 100 µM (inactive)	> 100 µM (inactive)		97.5 µM (inactive)	> 100 µM (inactive)	> 100 µM (inactive)	> 100 µM (inactive)	> 100 µM (inactive)	> 100 µM (inactive)	> 100 µM (inactive)		> 100 µM (inactive)		> 100 µM (inactive)	
ClC1CCC2OOC1O2 (stereo not given)		> 100 µM (inactive)	> 100 µM (inactive)	> 100 µM (inactive)	> 100 µM (inactive)	> 100 µM (inactive)	> 100 µM (inactive)	87.3	82.2 µM (inactive)	> 100 µM (inactive)	> 100 µM (inactive)	43.7 µM (inactive)	> 100 µM (inactive)	> 100 µM (inactive)	> 100 µM (inactive)		> 100 µM (inactive)		> 100 µM (inactive)	
COc1ccc2c(c1)[n+]([O-])c(/C(C)=N/NC(N)=S)c(C)[n+]2[O-]	51.6 µM (inactive)	2 µM (inactive)	> 59.8 µM (inactive)		17.8 µM (inactive)	38.8 µM (inactive)	58.9 µM (inactive)	45.6	79.4 µM (inactive)	86.9 µM (inactive)	33.9 µM (inactive)	36 µM (inactive)	31 µM (inactive)	37.6 µM (inactive)	49.7 µM (inactive)	28.8 µM (inactive)	> 100 µM (inactive)	95.1 µM (inactive)	> 100 µM (inactive)	78.3 µM (inactive)
O=C1c2ccccc2C(=O)C1(O)c1c[nH]c2ccccc12	> 100 µM (inactive)	> 100 µM (inactive)	> 100 µM (inactive)		> 100 µM (inactive)	> 100 µM (inactive)	> 100 µM (inactive)	> 100	> 100 µM (inactive)	> 100 µM (inactive)	> 100 µM (inactive)	> 100 µM (inactive)	> 100 µM (inactive)	> 100 µM (inactive)	> 100 µM (inactive)		> 100 µM (inactive)			
Clc1ccc(C(Cc2ccccc2)c2c(Cl)nc(N3CCNCC3)nc2Cl)cc1 (stereo not given)		1.63 µM (inactive)	14.5 µM (inactive)		4.01 µM (inactive)	1.73 µM (inactive)	18.6 µM (inactive)	4.06	14.1 µM (inactive)		14.3 µM (inactive)		12.4 µM (inactive)	16.2 µM (inactive)	11.3 µM (inactive)	15.8 µM (inactive)			11.9 µM (inactive)	16.6 µM (inactive)
O=S(O)c1cc(Cl)c(O)c(Cl)c1	> 100 µM (inactive)	> 100 µM (inactive)	> 100 µM (inactive)		> 100 µM (inactive)		> 100 µM (inactive)		> 100 µM (inactive)	> 100 µM (inactive)	> 100 µM (inactive)	> 100 µM (inactive)	> 100 µM (inactive)	> 100 µM (inactive)	> 100 µM (inactive)		> 100 µM (inactive)		> 100 µM (inactive)	
COc1ccc(C(=O)Oc2c(C#N)sc3c2c(=O)n(-c2ccccc2)c(=S)n3-c2ccccc2)cc1		< 0.01 µM (active)	21.6 µM (inactive)		21 µM (inactive)	25.8 µM (inactive)	28.1 µM (inactive)	16.7	> 100 µM (inactive)		20.3 µM (inactive)		0.131 µM (active)	20.3 µM (inactive)	2.12 µM (inactive)	20.6 µM (inactive)			16.4 µM (inactive)	22.7 µM (inactive)
CCCNC(=O)Nc1c([N+](=O)[O-])cc(C(F)(F)F)cc1[N+](=O)[O-]	55.2 µM (inactive)	92.9 µM (inactive)	71.3 µM (inactive)	> 100 µM (inactive)	> 100 µM (inactive)	> 10 µM (inactive)	20.3 µM (inactive)	51.8	34 µM (inactive)	42.8 µM (inactive)	22.3 µM (inactive)		31.3 µM (inactive)	86.3 µM (inactive)	> 100 µM (inactive)		82.8 µM (inactive)		> 100 µM (inactive)	
CCC1CN2CCC3(c4ccccc4)CC(C(=O)OC)=CC1C23 (stereo not given)	15.4 µM (inactive)	41.3 µM (inactive)	16.8 µM (inactive)		49.2 µM (inactive)	16.9 µM (inactive)	14.5 µM (inactive)	17.6	17.3 µM (inactive)	17.1 µM (inactive)	19.2 µM (inactive)		14.1 µM (inactive)	14.8 µM (inactive)	14.1 µM (inactive)		19.3 µM (inactive)	14.9 µM (inactive)	18.6 µM (inactive)	
CCOC(=O)c1ccc(O)cc1 [ETHYLPARABEN]		> 100 µM (inactive)	> 100 µM (inactive)	55.5 µM (inactive)	> 100 µM (inactive)	> 100 µM (inactive)	> 100 µM (inactive)	> 100	> 100 µM (inactive)	> 100 µM (inactive)		> 100 µM (inactive)	> 100 µM (inactive)	> 100 µM (inactive)	> 100 µM (inactive)		> 100 µM (inactive)			
N#CC1=C(N)n2c(s/c(=C\c3ccc(Cl)cc3)c2=O)=C(c2nc3ccccc3[nH]2)C1c1ccc(Cl)cc1 (stereo not given)	1.9 µM (inactive)	2.17 µM (inactive)	1.98 µM (inactive)	2.12 µM (inactive)	1.47 µM (inactive)	2.51 µM (inactive)	2.01 µM (inactive)	2.06	2.77 µM (inactive)	3.04 µM (inactive)	1.8 µM (inactive)	1.99 µM (inactive)	1.96 µM (inactive)	3.62 µM (inactive)	4.45 µM (inactive)				1.38 µM (inactive)	
COc1ccc2[nH]cc(/C=C(/C)c3ccncc3)c2c1			8.36 µM (inactive)	1.57 µM (inactive)	3.62 µM (inactive)	3.1 µM (inactive)	65 µM (inactive)	1.19	2.38 µM (inactive)	3.72 µM (inactive)	5.7 µM (inactive)	2.62 µM (inactive)	2.63 µM (inactive)		23.2 µM (inactive)	2.94 µM (inactive)		> 100 µM (inactive)	5.07 µM (inactive)	
O=C1C(S(=O)(=O)c2ccccc2)=C(CS(=O)(=O)c2ccccc2)[C@@H](OCc2ccccc2)[C@@H]1OCc1ccccc1		14.5 µM (inactive)	19.2 µM (inactive)		16.9 µM (inactive)	25.8 µM (inactive)	20.7 µM (inactive)	18.2	> 100 µM (inactive)		12.5 µM (inactive)		16 µM (inactive)	15.7 µM (inactive)	18.5 µM (inactive)	20.7 µM (inactive)			23.3 µM (inactive)	26.9 µM (inactive)
CC1C(c2ccc(N(C)C)cc2)c2cc3c(cc2OC1N1CCCC1)OCO3 (stereo not given)		38.8 µM (inactive)	21.7 µM (inactive)		48.8 µM (inactive)	45 µM (inactive)	> 100 µM (inactive)	36.9	> 34.4 µM (inactive)		43.5 µM (inactive)		29.5 µM (inactive)	31.9 µM (inactive)	30.8 µM (inactive)	33.6 µM (inactive)			20.7 µM (inactive)	16.6 µM (inactive)
CC1(C)CCCOc2cccc(c2)OCCCC(C)(C)C1=O		34 µM (inactive)	86.5 µM (inactive)		12.8 µM (inactive)	49.3 µM (inactive)	27.5 µM (inactive)	35.5	30.8 µM (inactive)		22 µM (inactive)		13.3 µM (inactive)	33.9 µM (inactive)	51.4 µM (inactive)	38.3 µM (inactive)			66.2 µM (inactive)	34 µM (inactive)
CN1CCC[N+](C)=C1c1ccccc1		> 100 µM (inactive)	> 100 µM (inactive)		> 100 µM (inactive)	> 100 µM (inactive)	> 100 µM (inactive)	> 100	> 100 µM (inactive)		> 100 µM (inactive)		> 100 µM (inactive)	> 100 µM (inactive)	> 100 µM (inactive)	> 100 µM (inactive)			37.2 µM (inactive)	> 100 µM (inactive)
